Measurements published in ChEMBL document CHEMBL1275255, “Role of Fks1p and matrix glucan in Candida albicans biofilm resistance to an echinocandin, pyrimidine, and polyene” (2010).
In brackets after ≈: the same amount, converted by molar mass. Starred links: 1 amine or outer side, 2 acyl side, 3 side chain; linkers in the order of their positions; H or OH if unused. Positions of bridges follow the written chain, without caps; N, C: chain ends. Non-standard residues stand in square brackets, D forms with d. Residues, ends and D or L forms follow the SMILES beside them. *: point of attachment. pTerphenylCO(4''-OnC5H11) = CCCCCOc1ccc(-c2ccc(-c3ccc(C(=O)*)cc3)cc2)cc1; Orn(4R-OH,5R-OH) = O=C([C@H](C[C@@H](O)[C@@H](O)N[*:3])N[*:1])[*:2]; hTyr(3S-OH,4S-OH) = N[C@H](C(=O)O)[C@H](O)[C@@H](O)c1ccc(O)cc1; Pro(3S-OH,4S-Me) = C[C@H]1CN[C@H](C(=O)O)[C@H]1O; Hyp = O=C(O)[C@@H]1C[C@@H](O)CN1

Columns and labels:
Format in all cases: functional
Candida albicans [1] = assay: Antifungal activity against […] gene deficient Candida albicans assessed as decrease in biofilm formation at 0.25 ug/ml; parameters: scale not given: the % may be the effect or the level left
Candida albicans [2] = assay: Antifungal activity against Candida albicans assessed as decrease in biofilm formation at 0.25 ug/ml; parameters: scale not given: the % may be the effect or the level left
Candida albicans [3] = assay: Antifungal activity against Candida albicans grown as planktonic cell after 24 hrs by XTT reduction assay
Candida albicans [4] = assay: Antifungal activity against […] gene deficient Candida albicans
Candida albicans [5] = assay: Antifungal activity against Candida albicans TDH3 overexpressing FKS1 gene

Structure (SMILES)	Activity (Candida albicans [1])	Activity (Candida albicans [2])	MIC (Candida albicans [3])	MIC (Candida albicans [4])	MIC (Candida albicans [5])
C[C@@H]1[C@H](O)[C@@H](C)/C=C/C=C/C=C/C=C/C=C/C=C/C=C/[C@H](O[C@@H]2O[C@H](C)[C@@H](O)[C@H](N)[C@@H]2O)C[C@@H]2O[C@](O)(C[C@@H](O)C[C@@H](O)[C@H](O)CC[C@@H](O)C[C@@H](O)CC(=O)O[C@H]1C)C[C@H](O)[C@H]2C(=O)O [AMPHOTERICIN B]	80%	60%	–	–	–
CCCCCOc1ccc(-c2ccc(-c3ccc(C(=O)N[C@H]4C[C@@H](O)[C@@H](O)NC(=O)[C@@H]5[C@@H](O)[C@@H](C)CN5C(=O)[C@H]([C@@H](C)O)NC(=O)[C@H]([C@H](O)[C@@H](O)c5ccc(O)cc5)NC(=O)[C@@H]5C[C@@H](O)CN5C(=O)[C@H]([C@@H](C)O)NC4=O)cc3)cc2)cc1 [ANIDULAFUNGIN] ({pTerphenylCO(4''-OnC5H11)}-[Orn(4R-OH,5R-OH)]T[Hyp][hTyr(3S-OH,4S-OH)]T[Pro(3S-OH,4S-Me)]; lactam 1-C)	–	–	0.01 µg/mL (≈ 0.00877 µM)	0.01 µg/mL (≈ 0.00877 µM)	0.01 µg/mL (≈ 0.00877 µM)
Nc1nc(=O)[nH]cc1F [FLUCYTOSINE]	–	–	0.03 µg/mL (≈ 0.232 µM)	0.03 µg/mL (≈ 0.232 µM)	0.03 µg/mL (≈ 0.232 µM)
